Assay results as given in ChEMBL document CHEMBL4004851, “Room Temperature Neutron Crystallography of Drug Resistant HIV-1 Protease Uncovers Limitations of X-ray Structural Analysis at 100 K” (J Med Chem, 2017).

Tests used:
[1] = tested on: Human immunodeficiency virus type 1 protease (Human immunodeficiency virus 1), Q72874 [V32I,I47V,V82I]
[2] = target: T1, Human immunodeficiency virus type 1 protease (Human immunodeficiency virus 1, UniProt Q72874, I47V/V32I/V82I); experiment: Binding affinity to HIV1 protease V32I/I47V/V82I triple mutant at pH 4.0 and 28 degC by ITC method
T1 sequence (Q72874 entry or part of it I47V/V32I/V82I): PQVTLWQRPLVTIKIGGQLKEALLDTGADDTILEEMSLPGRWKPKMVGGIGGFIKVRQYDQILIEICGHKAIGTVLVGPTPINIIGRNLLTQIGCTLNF

[3] = tested on: Human immunodeficiency virus 1
Description: Binding affinity to wild type HIV1 protease assessed as deltaH level at pH 5.0 and 20 degC by ITC method

[4] = tested on: Human immunodeficiency virus 1; remark: listed apart in the source
Description: Binding affinity to wild type HIV1 protease assessed as deltaG level at pH 5.0 and 20 degC by ITC method

[5] = tested on: Human immunodeficiency virus type 1 protease (Human immunodeficiency virus 1), Q72874 [V32I,I47V,V82I]; remark: listed apart in the source
[6] = tested on: Human immunodeficiency virus type 1 protease (Human immunodeficiency virus 1), Q72874 [V32I,I47V,V82I]; remark: listed apart in the source
[7] = tested on: Human immunodeficiency virus 1; remark: listed apart in the source
Description: Binding affinity to wild type HIV1 protease assessed as deltaS level at pH 5.0 and 20 degC by ITC method

[8] = tested on: Human immunodeficiency virus type 1 protease (Human immunodeficiency virus 1), Q72874 [V32I,I47V,V82I]; remark: listed apart in the source
[9] = tested on: Human immunodeficiency virus 1; experiment: Binding affinity to wild type HIV1 protease assessed as -TdeltaS level at pH 5.0 and 20 degC by ITC method
[10] = Binding affinity to wild type HIV1 protease at pH 5.0 and 20 degC by ITC method; parameters: species or system Human immunodeficiency virus 1
[11] = target: T1, Human immunodeficiency virus type 1 protease; experiment: Binding affinity to HIV1 protease V32I/I47V/V82I triple mutant at pH 5.8 and 28 degC by ITC method
[12] = tested on: Human immunodeficiency virus type 1 protease (Human immunodeficiency virus 1), Q72874 [V32I,I47V,V82I]; remark: listed apart in the source
[13] = tested on: Human immunodeficiency virus type 1 protease (Human immunodeficiency virus 1), Q72874 [V32I,I47V,V82I]; remark: listed apart in the source
[14] = tested on: Human immunodeficiency virus type 1 protease (Human immunodeficiency virus 1), Q72874 [V32I,I47V,V82I]; remark: listed apart in the source
[15] = tested on: Human immunodeficiency virus type 1 protease (Human immunodeficiency virus 1), Q72874 [V32I,I47V,V82I]; remark: listed apart in the source

Sequence of Human immunodeficiency virus type 1 protease (Human immunodeficiency virus 1), Q72874 [V32I,I47V,V82I] (Q72874 entry or part of it V32I/I47V/V82I): as the sequence (Q72874 entry or part of it I47V/V32I/V82I) above

Work on `CC(C)CN(C[C@@H](O)[C@H](Cc1ccccc1)NC(=O)O[C@H]1CCOC1)S(=O)(=O)c1ccc(N)cc1` [AMPRENAVIR] yielded a -TdeltaS [1] of -4.2 kcal/mol, a Ki [2] of 10 nM and a deltaH [3] of -7.3 kcal/mol. The deltaG [4] was -12.6 kcal/mol, the deltaS [5] was 14 cal/mol.K and the deltaG [6] was -10.2 kcal/mol. The deltaS [7] was 18.1 cal/mol.K, the -TdeltaS [8] was -4.3 kcal/mol and the -TdeltaS [9] was -5.3 kcal/mol. The Ki [10] was 0.39 nM, the Ki [11] was 35 nM and the deltaH [12] was -6 kcal/mol. It also gave a deltaG [13] of -11 kcal/mol, a deltaH [14] of -6.8 kcal/mol and a deltaS [15] of 14.3 cal/mol.K.
